Data reported in PubChem BioAssay AID248 (DTP/NCI, 2004).
Inconclusive results and toxic doses are left out. Numbered stars: 1 amine (or outer) side, 2 acyl side, 3 side chain; on linkers, the order of the positions; unused ones are H or OH. Bridge positions count the residues as written; N and C are the ends. Square brackets hold non-standard residues; d marks the D form. Peptide text beside a SMILES is read from it. I, II: the chains in the order shown. Actinocin(1to9) = Cc1c2oc3c(C)ccc(C(=O)[*:2])c3nc-2c(C(=O)[*:1])c(N)c1=O; NMeV = CN[CH](C(=O)O)C(C)C; Sar = CNCC(=O)O

System: L1210 leukemia ip in BDF1 mice, survival T/C
Experiment: NCI In Vivo Anticancer Drug Screen. Data for tumor model L1210 Leukemia (intraperitoneal) in B6D2F1 (BDF1) mice
Conditions: higher = longer survival
Procedure, shortened: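 Mice bearing the transplanted tumor received compound or vehicle. Survival of the treated group was divided by that of the vehicle-treated control group to give the ratio.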

[1] = endpoint: mean survival time, dose: 100.0 mg/kg/injection, schedule: Q04DX003 (ip), vehicle: Klucel (hydroxypropylcellulose) (HPC)
[2] = endpoint: mean survival time, dose: 200.0 mg/kg/injection, schedule: Q04DX003 (ip), vehicle: Klucel (hydroxypropylcellulose) (HPC)
[3] = endpoint: mean survival time, dose: 400.0 mg/kg/injection, schedule: Q04DX003 (ip), vehicle: Klucel (hydroxypropylcellulose) (HPC)
[4] = endpoint: mean survival time, dose: 100.0 mg/kg/injection, schedule: Q01DX009 (ip), vehicle: Klucel (hydroxypropylcellulose) (HPC)
[5] = endpoint: mean survival time, dose: 200.0 mg/kg/injection, schedule: Q01DX009 (ip), vehicle: Klucel (hydroxypropylcellulose) (HPC)
[6] = endpoint: mean survival time, dose: 400.0 mg/kg/injection, schedule: Q01DX009 (ip), vehicle: Klucel (hydroxypropylcellulose) (HPC)
[7] = endpoint: mean survival time, dose: 100.0 mg/kg/injection, schedule: Q04DX003 (ip), vehicle: saline
[8] = endpoint: mean survival time, dose: 200.0 mg/kg/injection, schedule: Q04DX003 (ip), vehicle: saline
[9] = endpoint: mean survival time, dose: 400.0 mg/kg/injection, schedule: Q04DX003 (ip), vehicle: saline
[10] = endpoint: mean survival time, dose: 100.0 mg/kg/injection, schedule: Q01DX001 (ip), vehicle: saline with Tween-80
[11] = endpoint: mean survival time, dose: 200.0 mg/kg/injection, schedule: Q01DX001 (ip), vehicle: saline with Tween-80
[12] = endpoint: mean survival time, dose: 100.0 mg/kg/injection, schedule: Q01DX001 (ip), vehicle: carboxymethylcellulose (CMC)
[13] = endpoint: mean survival time, dose: 25.0 mg/kg/injection, schedule: Q01DX001 (ip), vehicle: saline with Tween-80
[14] = endpoint: mean survival time, dose: 50.0 mg/kg/injection, schedule: Q01DX001 (ip), vehicle: saline with Tween-80
[15] = endpoint: mean survival time, dose: 25.0 mg/kg/injection, schedule: Q04DX002 (ip), vehicle: saline
[16] = endpoint: mean survival time, dose: 50.0 mg/kg/injection, schedule: Q04DX002 (ip), vehicle: saline
[17] = endpoint: mean survival time, dose: 100.0 mg/kg/injection, schedule: Q04DX002 (ip), vehicle: saline

## CCC(C)C1NC(=O)C(NC(=O)c2c3nc4c(C(=O)NC5C(=O)NC(C(C)CC)C(=O)N6CCCC6C(=O)N(C)CC(=O)N(C)C(C(C)C)C(=O)OC5C)ccc(C)c4oc-3c(C)c(=O)c2N)C(C)OC(=O)C(C(C)C)N(C)C(=O)CN(C)C(=O)C2CCCN2C1=O (stereo not drawn) (I: TIP[Sar][NMeV] / II: TIP[Sar][NMeV]; ester I:1-I:C, II:1-II:C; linker I:N-II:N via Actinocin(1to9); configuration not given here)
endpoint: mean survival time, dose: 0.1 mg/kg/injection, schedule: Q01DX009 (ip), vehicle: saline
  T/C: 170 % of control
endpoint: mean survival time, dose: 0.4 mg/kg/injection, schedule: Q01DX009 (ip), vehicle: saline
  T/C: 86 % of control
endpoint: mean survival time, dose: 2.5 micrograms/kg/injection, schedule: Q01DX009 (ip), vehicle: saline
  T/C: 115 % of control
endpoint: mean survival time, dose: 3.1 micrograms/kg/injection, schedule: Q01DX001 (ip), vehicle: saline
  T/C: 106 % of control
endpoint: mean survival time, dose: 6.0 micrograms/kg/injection, schedule: Q01DX009 (ip), vehicle: saline
  T/C: 122 % of control
endpoint: mean survival time, dose: 6.3 micrograms/kg/injection, schedule: Q01DX001 (ip), vehicle: saline
  T/C: 102 % of control
endpoint: mean survival time, dose: 10.0 micrograms/kg/injection, schedule: Q01DX009 (ip), vehicle: saline
  T/C: 118 % of control
endpoint: mean survival time, dose: 12.5 micrograms/kg/injection, schedule: Q01DX001 (ip), vehicle: saline
  T/C: 102 % of control
endpoint: mean survival time, dose: 12.5 micrograms/kg/injection, schedule: Q01DX009 (ip), vehicle: saline
  T/C: 122 % of control
endpoint: mean survival time, dose: 25.0 micrograms/kg/injection, schedule: Q01DX001 (ip), vehicle: saline
  T/C: 114 % of control
endpoint: mean survival time, dose: 50.0 micrograms/kg/injection, schedule: Q01DX001 (ip), vehicle: saline
  T/C: 102 % of control
endpoint: mean survival time, dose: 50.0 micrograms/kg/injection, schedule: Q01DX009 (ip), vehicle: saline
  T/C: 150 % of control
endpoint: mean survival time, dose: 59.4 micrograms/kg/injection, schedule: Q01DX009 (ip), vehicle: acetone
  T/C: 160 % of control
endpoint: mean survival time, dose: 90.0 micrograms/kg/injection, schedule: Q01DX009 (ip), vehicle: acetone
  T/C: 102 % of control
endpoint: mean survival time, dose: 100.0 micrograms/kg/injection, schedule: Q01DX001 (ip), vehicle: saline
  T/C: 111 % of control
endpoint: mean survival time, dose: 135.0 micrograms/kg/injection, schedule: Q01DX009 (ip), vehicle: acetone
  T/C: 104 % of control
endpoint: mean survival time, dose: 200.0 micrograms/kg/injection, schedule: Q01DX001 (ip), vehicle: saline
  T/C: 117 % of control
endpoint: median survival time, dose: 12.5 micrograms/kg/injection, schedule: Q01DX009 (ip), vehicle: water
  T/C: 113 % of control
endpoint: median survival time, dose: 25.0 micrograms/kg/injection, schedule: Q01DX009 (ip), vehicle: water
  T/C: 117 % of control
endpoint: median survival time, dose: 75.0 micrograms/kg/injection, schedule: Q04DX003 (ip), vehicle: water
  T/C: 122 % of control
endpoint: median survival time, dose: 200.0 micrograms/kg/injection, schedule: Q01DX001 (ip), vehicle: water
  T/C: 118 % of control
endpoint: median survival time, dose: 600.0 micrograms/kg/injection, schedule: Q04DX003 (ip), vehicle: water
  T/C: 150 % of control

## COc1cc(C)c(Cl)c(C)c1C#CC(=O)O
endpoint: mean survival time, dose: 75.0 mg/kg/injection, schedule: Q01DX009 (ip), vehicle: Klucel (hydroxypropylcellulose) (HPC)
  T/C: 101 % of control
endpoint: mean survival time, dose: 150.0 mg/kg/injection, schedule: Q01DX009 (ip), vehicle: Klucel (hydroxypropylcellulose) (HPC)
  T/C: 100 % of control

## C[CH2][Pb]([CH2]C)([CH2]C)[S]c1ccc(Cl)cc1
endpoint: mean survival time, dose: 25.0 mg/kg/injection, schedule: Q04DX002 (sc), vehicle: olive oil, sesame oil, peanut oil
  T/C: 110 % of control
endpoint: mean survival time, dose: 50.0 mg/kg/injection, schedule: Q04DX002 (sc), vehicle: olive oil, sesame oil, peanut oil
  T/C: 87 % of control

## O=S(Cc1ccc(Cl)cc1)c1ccc(Cl)cc1 (stereo not drawn)
[1]
  T/C: 97 % of control
[2]
  T/C: 90 % of control
[3]
  T/C: 104 % of control

## CCCCCCCCNC1=C(OC)C(=O)C(NCCCCCCCC)=C(OC)C1=O
[4]
  T/C: 98 % of control
[1]
  T/C: 96 % of control
[5]
  T/C: 104 % of control
[2]
  T/C: 91 % of control
[6]
  T/C: 98 % of control
[3]
  T/C: 88 % of control

## CN(C)NC(=O)NCCCl
[7]
  T/C: 106 % of control
[8]
  T/C: 105 % of control
[9]
  T/C: 108 % of control

## CC1Nc2ccccc2NC1C (stereo not drawn)
endpoint: mean survival time, dose: 100.0 mg/kg/injection, schedule: Q01DX001 (ip), vehicle: saline
  T/C: 98 % of control

## O=C(NCCCl)N(O)C12CC3CC(CC(C3)C1)C2
[10]
  T/C: 90 % of control
[11]
  T/C: 97 % of control
endpoint: mean survival time, dose: 400.0 mg/kg/injection, schedule: Q01DX001 (ip), vehicle: saline with Tween-80
  T/C: 98 % of control

## CC(=O)c1cc(-c2ccccc2)nc2c(C)c(Cl)ccc12
[12]
  T/C: 90 % of control
endpoint: mean survival time, dose: 200.0 mg/kg/injection, schedule: Q01DX001 (ip), vehicle: carboxymethylcellulose (CMC)
  T/C: 92 % of control
endpoint: mean survival time, dose: 400.0 mg/kg/injection, schedule: Q01DX001 (ip), vehicle: carboxymethylcellulose (CMC)
  T/C: 90 % of control

## CCSc1ncnc2c1nnn2C1OC(CO)C(O)C1O (stereo not drawn)
endpoint: mean survival time, dose: 12.5 mg/kg/injection, schedule: Q01DX001 (ip), vehicle: saline with Tween-80
  T/C: 100 % of control
[13]
  T/C: 102 % of control
[14]
  T/C: 97 % of control
[10]
  T/C: 103 % of control
[11]
  T/C: 108 % of control

## CC(O)CN1CCOCC1 (stereo not drawn)
[7]
  T/C: 100 % of control
[8]
  T/C: 97 % of control
[9]
  T/C: 107 % of control

## Cc1ccc(S(=O)(=O)N2CC(=O)CCc3ccc(Cl)cc32)cc1
endpoint: mean survival time, dose: 75.0 mg/kg/injection, schedule: Q01DX009 (ip), vehicle: other
  T/C: 100 % of control
endpoint: mean survival time, dose: 150.0 mg/kg/injection, schedule: Q01DX009 (ip), vehicle: other
  T/C: 100 % of control
endpoint: mean survival time, dose: 300.0 mg/kg/injection, schedule: Q01DX009 (ip), vehicle: other
  T/C: 100 % of control

## CNC(Cc1ccccc1)c1ccccc1 (stereo not drawn)
endpoint: mean survival time, dose: 25.0 mg/kg/injection, schedule: Q01DX009 (ip), vehicle: saline with Tween-80
  T/C: 94 % of control
endpoint: mean survival time, dose: 50.0 mg/kg/injection, schedule: Q01DX009 (ip), vehicle: saline with Tween-80
  T/C: 101 % of control
endpoint: mean survival time, dose: 100.0 mg/kg/injection, schedule: Q01DX009 (ip), vehicle: saline with Tween-80
  T/C: 99 % of control

## C1CCC(C2CC2)CC1
endpoint: mean survival time, dose: 50.0 mg/kg/injection, schedule: Q01DX009 (ip), vehicle: saline
  T/C: 97 % of control
endpoint: mean survival time, dose: 100.0 mg/kg/injection, schedule: Q01DX009 (ip), vehicle: saline
  T/C: 94 % of control
endpoint: mean survival time, dose: 200.0 mg/kg/injection, schedule: Q01DX009 (ip), vehicle: saline
  T/C: 94 % of control

## COC(=O)C#CC(=O)OC
endpoint: mean survival time, dose: 3.13 mg/kg/injection, schedule: Q04DX003 (ip), vehicle: Klucel (hydroxypropylcellulose) (HPC)
  T/C: 101 % of control
endpoint: mean survival time, dose: 6.25 mg/kg/injection, schedule: Q04DX003 (ip), vehicle: Klucel (hydroxypropylcellulose) (HPC)
  T/C: 99 % of control
endpoint: mean survival time, dose: 12.5 mg/kg/injection, schedule: Q04DX003 (ip), vehicle: Klucel (hydroxypropylcellulose) (HPC)
  T/C: 111 % of control

## CCC[CH2][Pb]([Cl])([Cl])[CH2]CCC
endpoint: mean survival time, dose: 5.0 mg/kg/injection, schedule: Q01DX001 (ip), vehicle: carboxymethylcellulose (CMC)
  T/C: 95 % of control
endpoint: mean survival time, dose: 20.0 mg/kg/injection, schedule: Q01DX001 (ip), vehicle: carboxymethylcellulose (CMC)
  T/C: 108 % of control
endpoint: mean survival time, dose: 40.0 mg/kg/injection, schedule: Q01DX001 (ip), vehicle: carboxymethylcellulose (CMC)
  T/C: 97 % of control
[12]
  T/C: 103 % of control

## O=[N+]([O-])c1[nH]c(Cl)nc1Cl
[13]
  T/C: 97 % of control
[14]
  T/C: 103 % of control

## CCCC(C)(C)N
[15]
  T/C: 97 % of control
[16]
  T/C: 90 % of control
[17]
  T/C: 103 % of control

## Cc1cc2c(cc1O)C(C)(C)CCC2(C)C
endpoint: mean survival time, dose: 100.0 mg/kg/injection, schedule: Q04DX003 (ip), vehicle: saline with Tween-80
  T/C: 92 % of control
endpoint: mean survival time, dose: 200.0 mg/kg/injection, schedule: Q04DX003 (ip), vehicle: saline with Tween-80
  T/C: 100 % of control
endpoint: mean survival time, dose: 400.0 mg/kg/injection, schedule: Q04DX003 (ip), vehicle: saline with Tween-80
  T/C: 97 % of control

## NC(CCl)=NC1CCCC1
[15]
  T/C: 109 % of control
[16]
  T/C: 102 % of control
[17]
  T/C: 121 % of control

## c1ccc2c(c1)NCCN2
endpoint: mean survival time, dose: 12.5 mg/kg/injection, schedule: Q01DX001 (ip), vehicle: saline
  T/C: 97 % of control
endpoint: mean survival time, dose: 25.0 mg/kg/injection, schedule: Q01DX001 (ip), vehicle: saline
  T/C: 94 % of control

## CCOC(=O)c1cnn(-c2ccccc2)c1C
[4]
  T/C: 94 % of control
[1]
  T/C: 112 % of control
[5]
  T/C: 94 % of control
[2]
  T/C: 95 % of control
[6]
  T/C: 102 % of control
[3]
  T/C: 88 % of control
